Test results from patent US11149037B2, “Pyrazole MAGL inhibitors” (H. Lundbeck A/S, priority 2017, dated 2021).

Key:
Assay type in all cases: biochemical
FAAH = FAAH (Mus musculus (Mouse), UniProt O08914); test: In vitro competitive activity-based protein profiling, mouse proteomes (brain membrane fraction or cell lysates); settings: mouse proteome, read-out: FAAH % inh. 1 μM (mouse)
Procedure: (§1) In Vitro Competitive Activity-Based Protein Profiling.
(§2) Proteomes (mouse brain membrane fraction or cell lysates for mouse assays; human prefrontal cortex or PC3 cell membrane fractions for human assays) (50 μL, 1.0 or 2.0 mg/mL total protein concentration) were preincubated with varying concentrations of inhibitors at 37° C. After 30 min, FP-Rh or JW912 or HT-01 (1.0 μL, 50 μM in DMSO) was added and the mixture was incubated for another 30 min at 37° C. Reactions were quenched with SDS loading buffer (15 μL-4×) and run on SDS-PAGE. Following gel imaging, serine hydrolase activity was determined by measuring fluorescent intensity of gel bands corresponding to MAGL and FAAH using ImageJ 1.43u software.

MAGL [1] = target: MAGL (Mus musculus (Mouse), UniProt O35678); test: as above; settings: mouse proteome, read-out: MAGL % inh. 1 μM (mouse)
Chain of MAGL (Mus musculus (Mouse), UniProt O35678) (O35678 whole entry): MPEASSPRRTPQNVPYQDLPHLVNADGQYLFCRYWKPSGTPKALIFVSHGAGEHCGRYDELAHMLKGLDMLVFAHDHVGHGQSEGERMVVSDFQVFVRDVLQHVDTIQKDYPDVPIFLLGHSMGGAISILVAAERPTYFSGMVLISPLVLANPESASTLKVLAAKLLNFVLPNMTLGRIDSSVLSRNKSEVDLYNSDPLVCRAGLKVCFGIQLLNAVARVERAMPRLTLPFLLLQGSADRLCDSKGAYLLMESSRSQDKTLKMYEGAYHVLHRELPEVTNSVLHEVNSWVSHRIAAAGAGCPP
Procedure: as §1, §2

MAGL [2] = target: MAGL (Homo sapiens (Human), UniProt Q99685); test: In vitro competitive activity-based protein profiling, human proteomes (prefrontal cortex or PC3 cell membrane fractions); settings: human proteome; for inhibition at 1 µM: read-out: MAGL % inh. 1 μM (human)
Chain of MAGL (Homo sapiens (Human), UniProt Q99685) (Q99685 whole entry): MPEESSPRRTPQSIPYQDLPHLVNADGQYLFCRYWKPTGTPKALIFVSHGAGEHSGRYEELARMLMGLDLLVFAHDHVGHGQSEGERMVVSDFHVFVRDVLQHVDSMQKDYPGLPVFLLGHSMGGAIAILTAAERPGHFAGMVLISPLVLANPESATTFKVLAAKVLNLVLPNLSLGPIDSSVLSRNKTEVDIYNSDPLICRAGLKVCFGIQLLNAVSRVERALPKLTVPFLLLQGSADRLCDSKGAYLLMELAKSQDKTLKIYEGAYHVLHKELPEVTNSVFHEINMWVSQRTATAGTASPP
Procedure: as §1, §2

Chain of FAAH (O08914 whole entry): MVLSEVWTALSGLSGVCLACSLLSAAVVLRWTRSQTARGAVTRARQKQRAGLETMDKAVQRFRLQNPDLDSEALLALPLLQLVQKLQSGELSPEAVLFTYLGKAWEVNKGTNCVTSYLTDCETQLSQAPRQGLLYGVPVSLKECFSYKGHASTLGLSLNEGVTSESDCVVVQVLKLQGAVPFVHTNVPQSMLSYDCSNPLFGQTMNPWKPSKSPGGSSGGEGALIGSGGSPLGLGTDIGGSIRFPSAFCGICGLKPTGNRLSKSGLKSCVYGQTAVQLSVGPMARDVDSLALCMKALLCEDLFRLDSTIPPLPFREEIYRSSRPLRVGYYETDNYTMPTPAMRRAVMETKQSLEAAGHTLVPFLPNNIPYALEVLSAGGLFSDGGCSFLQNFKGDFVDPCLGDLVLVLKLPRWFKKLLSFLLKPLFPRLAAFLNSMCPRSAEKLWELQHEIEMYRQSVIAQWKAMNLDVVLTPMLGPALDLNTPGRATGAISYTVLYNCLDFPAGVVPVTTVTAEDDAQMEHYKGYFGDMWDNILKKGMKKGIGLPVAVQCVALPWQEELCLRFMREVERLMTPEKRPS

inhibition at 1 µM (FAAH)	inhibition at 1 µM (MAGL [1])	inhibition at 1 µM (MAGL [2])	IC50 (MAGL [2])	inhibition at 10 µM (MAGL [2]; 10 μM, read-out: MAGL % inh. (human) @ 10 μM)	SMILES
0 to 25%	> 75%				CC(C)C(=O)Nc1ccn(C(=O)N2CCN(Cc3ccc(C(F)(F)F)cc3N3CCCC3)CC2)n1 [Example 161, N-(1-(4-(2-(Pyrrolidin-1-yl)-4-(trifluoromethyl)benzyl)piperazine-1-carbonyl)-1H-pyrazol-3-yl)isobutyramide]
> 75%	0 to 25%				CS(=O)(=O)Nc1ccn(C(=O)N2CC3CN(Cc4cccc(Oc5ccc(Cl)cc5)c4)CC3C2)n1 (stereo not drawn) [Example 41, N-(1-(5-(3-(4-Chlorophenoxy)benzyl)octahydropyrrolo[3,4-c]pyrrole-2-carbonyl)-1H-pyrazol-3-yl)methanesulfonamide]
	> 75%	> 75%	< 0.1 µM		CS(=O)(=O)Nc1ccn(C(=O)N2CCN(Cc3ccc(C(F)(F)F)c(N4CC5COCC5C4)c3)CC2)n1 (stereo not drawn) [Example 181, N-(1-(4-(3-(Tetrahydro-1H-furo[3,4-c]pyrrol-5(3H)-yl)-4-(trifluoromethyl)benzyl)piperazine-1-carbonyl)-1H-pyrazol-3-yl)methanesulfonamide]
	> 75%	> 75%	< 0.1 µM		C[C@H]1CN(C(=O)n2ccc(NS(C)(=O)=O)n2)CCN1Cc1ccc(C(F)(F)F)c(N2CCC(F)CC2)c1 [Example 187, (S)-N-(1-(4-(3-(4-Fluoropiperidin-1-yl)-4-(trifluoromethyl)benzyl)-3-methylpiperazine-1-carbonyl)-1H-pyrazol-3-yl)methanesulfonamide]
	> 75%	> 75%	< 0.1 µM		C[C@H]1CN(C(=O)n2ccc(NS(C)(=O)=O)n2)CCN1Cc1ccc(C(F)(F)F)c(N2CC3COCC3C2)c1 (stereo partly drawn) [Example 179, N-(1-((3S)-3-Methyl-4-(3-(tetrahydro-1H-furo[3,4-c]pyrrol-5(3H)-yl)-4-(trifluoromethyl)benzyl)piperazine-1-carbonyl)-1H-pyrazol-3-yl)methanesulfonamide]
	> 75%	> 75%			CC(=O)Nc1ccn(C(=O)N2CC3CN(Cc4cc(C(F)(F)F)cc(C5(C(=O)O)CCCC5)c4)CC3C2)n1 (stereo not drawn) [Example 191, 1-(3-((5-(3-Acetamido-1H-pyrazole-1-carbonyl)hexahydropyrrolo[3,4-c]pyrrol-2(1H)-yl)methyl)-5-(trifluoromethyl)phenyl)cyclopentane-1-carboxylic acid]
	> 75%	> 75%			C[C@@H]1CCCN1c1cc(CN2CCN(C(=O)n3ccc(NS(C)(=O)=O)n3)C[C@@H]2C)ccc1Cl [Example 199, N-(1-((S)-4-(4-Chloro-3-((R)-2-methylpyrrolidin-1-yl)benzyl)-3-methylpiperazine-1-carbonyl)-1H-pyrazol-3-yl)methanesulfonamide]
	> 75%	> 75%			CS(=O)(=O)Nc1ccn(C(=O)N2CC[C@H](Oc3ccc(C(F)(F)F)c(N4CCC(F)CC4)c3)[C@@H](F)C2)n1 [Example 210, N-(1-((3S,4S)-3-Fluoro-4-(3-(4-fluoropiperidin-1-yl)-4-(trifluoromethyl)phenoxy)piperidine-1-carbonyl)-1H-pyrazol-3-yl)methanesulfonamide]
	> 75%	> 75%			C[C@H]1CN(C(=O)n2ccc(NS(C)(=O)=O)n2)CCN1Cc1ccc(Cl)c(N2CCCC2)c1 [Example 42, (S)-N-(1-(4-(4-Chloro-3-(pyrrolidin-1-yl)benzyl)-3-methylpiperazine-1-carbonyl)-1H-pyrazol-3-yl)methanesulfonamide]
	> 75%	> 75%			C[C@@H]1CN(C(=O)n2ccc(NS(C)(=O)=O)n2)CCN1Cc1ccc(Cl)c(N2CCC[C@H]2C)c1 [Example 200, N-(1-((R)-4-(4-Chloro-3-((R)-2-methylpyrrolidin-1-yl)benzyl)-3-methylpiperazine-1-carbonyl)-1H-pyrazol-3-yl)methanesulfonamide]
	> 75%	> 75%			CS(=O)(=O)Nc1ccn(C(=O)N2CCC3(CCCN3Cc3ccc(Cl)c(N4CCCC4)c3)CC2)n1 [Example 195, N-(1-(1-(4-Chloro-3-(pyrrolidin-1-yl)benzyl)-1,8-diazaspiro[4.5]decane-8-carbonyl)-1H-pyrazol-3-yl)methanesulfonamide]
	> 75%	> 75%	< 0.1 µM		CN(Cc1cc(Cl)ccc1C(F)(F)F)CC1CCN(C(=O)n2ccc(NS(C)(=O)=O)n2)CC1 [Example 184, N-(1-(4-(((5-Chloro-2-(trifluoromethyl)benzyl)(methyl)amino)methyl)piperidine-1-carbonyl)-1H-pyrazol-3-yl)methanesulfonamide]
	50 to 75%	> 75%			CN(Cc1ccc(Cl)cc1N1CCOCC1)C1(C)CCN(C(=O)n2ccc(NS(C)(=O)=O)n2)CC1 [Example 198, N-(1-(4-((4-Chloro-2-morpholinobenzyl)(methyl)amino)-4-methylpiperidine-1-carbonyl)-1H-pyrazol-3-yl)methanesulfonamide]
	> 75%	> 75%			CN(Cc1ccc(Cl)cc1N1CCC(F)CC1)C1(C)CCN(C(=O)n2ccc(NS(C)(=O)=O)n2)CC1 [Example 196, N-(1-(4-((4-Chloro-2-(4-fluoropiperidin-1-yl)benzyl)(methyl)amino)-4-methylpiperidine-1-carbonyl)-1H-pyrazol-3-yl)methanesulfonamide]
	> 75%	> 75%	< 0.1 µM		CC(=O)Nc1ccn(C(=O)N2CCC3(CCN(Cc4cccc(C(F)(F)F)c4)C3)CC2)n1 [Example 175, N-(1-(2-(3-(Trifluoromethyl)benzyl)-2,8-diazaspiro[4.5]decane-8-carbonyl)-1H-pyrazol-3-yl)acetamide]
	> 75%	> 75%			C[C@@H]1CN(C(=O)n2ccc(NS(C)(=O)=O)n2)CCN1Cc1ccc(Cl)c(N2CCC(C(F)(F)F)CC2)c1 [Example 202, (R)-N-(1-(4-(4-Chloro-3-(4-(trifluoromethyl)piperidin-1-yl)benzyl)-3-methylpiperazine-1-carbonyl)-1H-pyrazol-3-yl)methanesulfonamide]
	0 to 25%			50 to 75%	C[C@H]1C[C@@H](N(C)Cc2ccc(Cl)c(N3CC4COCC4C3)c2)CCN1C(=O)n1ccc(NS(C)(=O)=O)n1 (stereo partly drawn) [Example 194, N-(1-((2S,4S)-4-((4-chloro-3-(Tetrahydro-1H-furo[3,4-c]pyrrol-5(3H)-yl)benzyl)(methyl)amino)-2-methylpiperidine-1-carbonyl)-1H-pyrazol-3-yl)methanesulfonamide]
	> 75%	> 75%			CS(=O)(=O)Nc1ccn(C(=O)N2CCC(OCc3ccc(Cl)c(N4CCC(F)CC4)c3)CC2)n1 [Example 209, N-(1-(4-((4-Chloro-3-(4-fluoropiperidin-1-yl)benzyl)oxy)piperidine-1-carbonyl)-1H-pyrazol-3-yl)methanesulfonamide]
	> 75%	> 75%			CC(=O)Nc1ccn(C(=O)N2CCC(N(C)Cc3cc(C(F)(F)F)cc(C4(C(=O)O)CCCC4)c3)CC2)n1 [Example 193, 1-(3-(((1-(3-Acetamido-1H-pyrazole-1-carbonyl)piperidin-4-yl)(methyl)amino)methyl)-5-(trifluoromethyl)phenyl)cyclopentane-1-carboxylic acid]
	> 75%	> 75%	< 0.1 µM		C[C@H]1CN(Cc2ccc(C(F)(F)F)c(N3CC4COCC4C3)c2)CCN1C(=O)n1ccc(NS(C)(=O)=O)n1 (stereo partly drawn) [Example 178, N-(1-((2S)-2-Methyl-4-(3-(tetrahydro-1H-furo[3,4-c]pyrrol-5(3H)-yl)-4-(trifluoromethyl)benzyl)piperazine-1-carbonyl)-1H-pyrazol-3-yl)methanesulfonamide]
	> 75%	> 75%			C[C@H]1CN(C(=O)n2ccc(NS(C)(=O)=O)n2)CCN1Cc1cc(N2CCC(F)CC2)c(Cl)cn1 [Example 223, (S)-N-(1-(4-((5-Chloro-4-(4-fluoro-piperidin-1-yl)pyridin-2-yl)methyl)-3-methyl-piperazine-1-carbonyl)-1H-pyrazol-3-yl)methane-sulfonamide]
	> 75%	> 75%			C[C@H]1CN(C(=O)n2ccc(NS(C)(=O)=O)n2)CCN1Cc1ccc(C(F)(F)F)c(N2CC[C@H](F)C2)c1 [Example 192, N-(1-((S)-4-(3-((S)-3-Fluoropyrrolidin-1-yl)-4-(trifluoromethyl)benzyl)-3-methylpiperazine-1-carbonyl)-1H-pyrazol-3-yl)methanesulfonamide]
	> 75%	> 75%			CN(Cc1ccc(Cl)c(N2CCCC2)c1)C1(C)CCN(C(=O)n2ccc(NS(C)(=O)=O)n2)CC1 [Example 183, N-(1-(4-((4-Chloro-3-(pyrrolidin-1-yl)benzyl)(methyl)amino)-4-methylpiperidine-1-carbonyl)-1H-pyrazol-3-yl)methanesulfonamide]
	> 75%	> 75%			CN(Cc1ccc(Cl)c(N2CC3COCC3C2)c1)C1CCN(C(=O)n2ccc(NS(C)(=O)=O)n2)CC1 (stereo not drawn) [Example 177, N-(1-(4-((4-Chloro-3-(tetrahydro-1H-furo[3,4-c]pyrrol-5(3H)-yl)benzyl)(methyl)amino)piperidine-1-carbonyl)-1H-pyrazol-3-yl)methanesulfonamide]
